Assay results taken from ChEMBL document CHEMBL3991601, “The target landscape of clinical kinase drugs” (Science, 2017).
Calls of active or inactive are those of the source. Rule as the data show it, for most assays here: actives have a measured Kd and inactives only a lower limit.

Columns and labels:
[1] = biological target: T1, Serine/threonine-protein kinase 4 (Homo sapiens, UniProt Q13043)
T1 sequence (Q13043 whole entry): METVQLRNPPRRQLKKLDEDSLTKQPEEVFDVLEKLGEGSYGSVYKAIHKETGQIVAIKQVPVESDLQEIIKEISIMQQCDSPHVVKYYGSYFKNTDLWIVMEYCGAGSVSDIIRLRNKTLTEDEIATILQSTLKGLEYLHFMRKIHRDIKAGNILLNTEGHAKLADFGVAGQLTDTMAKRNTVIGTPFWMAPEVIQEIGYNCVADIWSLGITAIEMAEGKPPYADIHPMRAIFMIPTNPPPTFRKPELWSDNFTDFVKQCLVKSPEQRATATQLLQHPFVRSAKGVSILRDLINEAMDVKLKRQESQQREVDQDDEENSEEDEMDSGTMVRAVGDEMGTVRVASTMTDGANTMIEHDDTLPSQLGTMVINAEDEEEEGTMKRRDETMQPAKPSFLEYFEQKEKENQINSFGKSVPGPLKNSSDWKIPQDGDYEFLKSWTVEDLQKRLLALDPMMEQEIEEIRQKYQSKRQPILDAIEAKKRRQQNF

[2] = biological target: T2, Serine/threonine-protein kinase ULK1 (Homo sapiens, UniProt O75385)
T2 sequence (O75385 whole entry): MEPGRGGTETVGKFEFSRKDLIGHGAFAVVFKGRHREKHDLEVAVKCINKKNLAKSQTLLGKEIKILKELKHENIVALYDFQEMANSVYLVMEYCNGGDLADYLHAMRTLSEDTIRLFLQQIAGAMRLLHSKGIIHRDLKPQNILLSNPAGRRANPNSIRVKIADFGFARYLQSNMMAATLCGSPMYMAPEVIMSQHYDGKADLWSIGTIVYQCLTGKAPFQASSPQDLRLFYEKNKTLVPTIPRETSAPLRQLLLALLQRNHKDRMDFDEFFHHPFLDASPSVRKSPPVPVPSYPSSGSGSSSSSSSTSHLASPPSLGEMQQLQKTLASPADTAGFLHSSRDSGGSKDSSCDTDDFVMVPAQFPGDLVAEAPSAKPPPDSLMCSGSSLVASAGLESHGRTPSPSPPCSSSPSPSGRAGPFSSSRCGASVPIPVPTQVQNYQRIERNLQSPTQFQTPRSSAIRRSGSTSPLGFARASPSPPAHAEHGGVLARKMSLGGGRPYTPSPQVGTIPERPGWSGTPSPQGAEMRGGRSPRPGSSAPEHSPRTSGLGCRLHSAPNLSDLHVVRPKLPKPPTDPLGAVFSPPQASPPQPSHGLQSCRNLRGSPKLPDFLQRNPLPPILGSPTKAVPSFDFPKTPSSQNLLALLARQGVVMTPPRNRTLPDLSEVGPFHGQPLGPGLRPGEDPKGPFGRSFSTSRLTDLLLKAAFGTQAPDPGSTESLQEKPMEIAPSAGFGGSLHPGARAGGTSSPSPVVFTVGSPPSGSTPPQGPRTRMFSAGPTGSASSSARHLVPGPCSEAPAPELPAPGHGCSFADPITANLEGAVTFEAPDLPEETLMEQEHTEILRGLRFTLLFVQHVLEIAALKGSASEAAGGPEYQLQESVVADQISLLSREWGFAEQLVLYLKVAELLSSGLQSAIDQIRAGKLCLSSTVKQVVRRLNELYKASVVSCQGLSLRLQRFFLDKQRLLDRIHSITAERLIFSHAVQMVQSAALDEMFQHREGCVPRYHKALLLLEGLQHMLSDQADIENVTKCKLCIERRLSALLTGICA

[3] = biological target: Interleukin-1 receptor-associated kinase 1 (Homo sapiens, UniProt P51617)
[4] = biological target: T3, Structural maintenance of chromosomes protein 1A (Homo sapiens, UniProt Q14683)
T3 sequence (Q14683 whole entry): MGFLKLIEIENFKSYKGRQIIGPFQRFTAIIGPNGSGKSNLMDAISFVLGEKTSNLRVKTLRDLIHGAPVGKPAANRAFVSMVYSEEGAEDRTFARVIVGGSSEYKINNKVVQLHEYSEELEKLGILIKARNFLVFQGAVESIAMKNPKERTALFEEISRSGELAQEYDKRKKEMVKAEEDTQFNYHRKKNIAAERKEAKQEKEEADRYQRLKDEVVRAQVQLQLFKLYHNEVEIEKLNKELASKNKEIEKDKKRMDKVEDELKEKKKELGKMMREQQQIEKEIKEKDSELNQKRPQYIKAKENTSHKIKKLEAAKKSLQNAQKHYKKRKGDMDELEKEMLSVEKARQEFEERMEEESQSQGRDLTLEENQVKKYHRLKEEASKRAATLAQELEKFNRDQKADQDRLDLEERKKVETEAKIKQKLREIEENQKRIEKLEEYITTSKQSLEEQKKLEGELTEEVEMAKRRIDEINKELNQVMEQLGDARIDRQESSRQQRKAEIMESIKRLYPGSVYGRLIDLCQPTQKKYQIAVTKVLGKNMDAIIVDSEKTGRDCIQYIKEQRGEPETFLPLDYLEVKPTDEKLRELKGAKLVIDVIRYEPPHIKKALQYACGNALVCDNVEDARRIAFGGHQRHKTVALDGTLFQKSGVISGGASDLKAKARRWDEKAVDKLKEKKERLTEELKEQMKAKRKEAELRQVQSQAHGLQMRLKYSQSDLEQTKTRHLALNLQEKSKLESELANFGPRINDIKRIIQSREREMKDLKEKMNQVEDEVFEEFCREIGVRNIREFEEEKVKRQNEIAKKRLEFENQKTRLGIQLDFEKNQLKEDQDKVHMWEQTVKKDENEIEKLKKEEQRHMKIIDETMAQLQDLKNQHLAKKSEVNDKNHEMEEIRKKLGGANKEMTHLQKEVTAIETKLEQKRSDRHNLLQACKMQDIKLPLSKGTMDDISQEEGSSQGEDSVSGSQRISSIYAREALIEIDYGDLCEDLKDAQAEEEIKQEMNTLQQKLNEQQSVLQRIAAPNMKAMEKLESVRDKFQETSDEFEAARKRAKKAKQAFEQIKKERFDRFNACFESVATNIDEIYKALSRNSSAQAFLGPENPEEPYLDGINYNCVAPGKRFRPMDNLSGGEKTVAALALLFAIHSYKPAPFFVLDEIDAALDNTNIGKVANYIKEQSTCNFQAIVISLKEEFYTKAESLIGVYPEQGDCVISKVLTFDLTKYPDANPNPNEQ

[5] = biological target: Serine/threonine-protein kinase 10 (Homo sapiens, UniProt O94804)

Measured: Kd
Also: in the data inactive means no Kd found up to 30 µM.

Chain of Interleukin-1 receptor-associated kinase 1 (P51617 whole entry): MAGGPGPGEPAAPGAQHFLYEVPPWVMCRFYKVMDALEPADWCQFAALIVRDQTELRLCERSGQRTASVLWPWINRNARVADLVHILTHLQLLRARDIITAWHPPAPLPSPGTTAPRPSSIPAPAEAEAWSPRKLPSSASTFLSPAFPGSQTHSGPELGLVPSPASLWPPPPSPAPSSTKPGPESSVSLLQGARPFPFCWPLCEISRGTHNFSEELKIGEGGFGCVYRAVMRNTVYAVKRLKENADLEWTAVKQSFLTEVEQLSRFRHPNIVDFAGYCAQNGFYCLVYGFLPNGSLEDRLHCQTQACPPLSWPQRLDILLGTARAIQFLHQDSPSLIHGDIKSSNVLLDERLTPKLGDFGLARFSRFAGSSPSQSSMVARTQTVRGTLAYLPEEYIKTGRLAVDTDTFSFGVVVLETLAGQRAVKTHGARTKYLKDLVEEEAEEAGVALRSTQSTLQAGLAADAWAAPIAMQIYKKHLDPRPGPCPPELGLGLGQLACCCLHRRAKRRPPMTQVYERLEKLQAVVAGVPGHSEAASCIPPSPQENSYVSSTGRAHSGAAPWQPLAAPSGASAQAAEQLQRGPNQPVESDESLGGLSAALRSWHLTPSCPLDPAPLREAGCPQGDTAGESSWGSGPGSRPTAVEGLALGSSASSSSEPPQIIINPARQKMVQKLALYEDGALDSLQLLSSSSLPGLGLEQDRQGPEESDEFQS
Chain of Serine/threonine-protein kinase 10 (O94804 whole entry): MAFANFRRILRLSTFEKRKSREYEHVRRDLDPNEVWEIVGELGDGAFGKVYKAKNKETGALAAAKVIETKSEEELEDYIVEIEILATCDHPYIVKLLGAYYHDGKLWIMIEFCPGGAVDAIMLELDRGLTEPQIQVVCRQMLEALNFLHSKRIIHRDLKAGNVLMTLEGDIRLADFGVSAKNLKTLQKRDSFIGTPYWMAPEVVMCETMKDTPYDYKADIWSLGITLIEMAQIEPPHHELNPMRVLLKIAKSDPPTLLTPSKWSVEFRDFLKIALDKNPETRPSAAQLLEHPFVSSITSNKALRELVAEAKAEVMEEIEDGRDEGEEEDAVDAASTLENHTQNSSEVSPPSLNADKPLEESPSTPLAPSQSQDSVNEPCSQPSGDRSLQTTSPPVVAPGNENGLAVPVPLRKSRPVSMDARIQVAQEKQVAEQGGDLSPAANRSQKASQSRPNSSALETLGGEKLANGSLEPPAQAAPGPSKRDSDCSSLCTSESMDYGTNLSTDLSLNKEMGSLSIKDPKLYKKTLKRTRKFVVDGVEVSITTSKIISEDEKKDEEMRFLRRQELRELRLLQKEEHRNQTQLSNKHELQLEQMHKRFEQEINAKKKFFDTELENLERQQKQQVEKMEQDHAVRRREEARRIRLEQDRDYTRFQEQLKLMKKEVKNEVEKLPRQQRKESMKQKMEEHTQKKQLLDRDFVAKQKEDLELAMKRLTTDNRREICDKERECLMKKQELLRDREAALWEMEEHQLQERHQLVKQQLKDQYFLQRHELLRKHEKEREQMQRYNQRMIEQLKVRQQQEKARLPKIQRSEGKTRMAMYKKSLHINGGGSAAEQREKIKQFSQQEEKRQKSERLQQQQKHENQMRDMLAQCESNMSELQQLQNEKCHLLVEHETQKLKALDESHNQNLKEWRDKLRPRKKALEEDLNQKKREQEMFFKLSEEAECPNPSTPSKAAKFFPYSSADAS

COc1ccc(-c2ccc3ncc4c(c3c2)n(-c2ccc(N3CCNCC3)c(C(F)(F)F)c2)c(=O)n4C)cn1 [BGT-226 FREE BASE]
inactive: [1] > 30 µM | [2] > 30 µM | [3] > 30 µM | [4] > 30 µM | [5] > 30 µM
